Laboratory results from patent US4965262A, “Method for treating or preventing locally periodontal disease” (Rohto Pharmaceutical Co., Ltd., priority 1987, dated 1990).
Like-named read-outs stand apart in the source and are kept apart here.

What was measured:
[1] = Concentration of ofloxacin in periodontal fluid in the pockets after local administration; assay type: in vivo, volunteers
Method: The preparations of Example 3 containing ofloxacin to be inserted into the periodontal pockets were locally administered to the pockets of volunteers and the concentration of ofloxacin in the periodontal fluid in the pockets was determined and compared with that in saliva obtained by oral administration thereof. In the test, the preparations of Example 3 having a thickness of 0.3 mm and width of 1 mm was cut into strips having a length of 4 mm (each containing 0.06 mg of ofloxacin). The strip was inserted into a periodontal pocket of each volunteer. The probing depth of the pocket was 5 mm. After a given time, a filter paper having a width of 1 mm was inserted into the pocket to take the periodontal fluid out of the pocket. The amount of ofloxacin in the periodontal fluid was determined from the diameter of an inhibition circle according to an agar plate diffusion method with E. coli K 12. The quantity of the periodontal fluid thus taken out was determined from a calibration curve prepared from the quantity of a previously prepared liquid sample and the wetted area of the filter paper. The concentration of ofloxacin was thus determined. The time profile of the concentration of ofloxacin in saliva in the oral administration was taken from a report of Morihana et al. (Chemotherapy, 32: Sl, 1070, 1984).

dogs = details: cited from earlier work
monkeys = details: cited from earlier work
[2] = cited from earlier work; for average concentration of ofloxacin in saliva: oral, 200 mg/body, 8 subjects

Structure (SMILES): CC1COc2c(N3CCN(C)CC3)c(F)cc3c(=O)c(C(=O)O)cn1c23 (stereo not drawn) [ofloxacin, 9-fluoro-2,3-dihydro-3-methyl-10-(4-methyl-1-piperazinyl)-7-oxo-7H-pyrido[1,2,3-de][1,4]benzoxazine-6-carboxylic acid]
- time for which concentration in the pocket was maintained above 70 μg/ml ([1]; 0.06 mg inserted into the periodontal pocket): > 5 h
- concentration at 5 h ([1]; human, periodontal fluid, 0.06 mg inserted into the periodontal pocket, for longer than 5 h, read-out: concentration in the pocket maintained): > 70000 ng/mL
- concentration at 24 h ([1]; human, periodontal fluid, 0.06 mg/pocket, 24 h, 8 pockets of 4 subjects): 16600 ng/mL
- Acute toxicity (LD50 in oral administration) (dogs): ≥ 200 mg/kg
- Acute toxicity (LD50 in oral administration) (monkeys): 500 to 1,000 mg/kg
- maximum concentration in saliva ([2]; oral administration of 200 mg, in 3 hours): 1.8 µg/mL
- time of maximum concentration in saliva ([2]; oral administration of 200 mg): 3 h
- average concentration of ofloxacin in saliva ([2]; 1 h): 1.18 µg/mL
- average concentration of ofloxacin in saliva ([2]; 2 h): 1.59 µg/mL
- average concentration of ofloxacin in saliva ([2]; 3 h): 1.80 µg/mL
- average concentration of ofloxacin in saliva ([2]; 4 h): 1.65 µg/mL
- average concentration of ofloxacin in saliva ([2]; 5 h): 1.40 µg/mL
